This note sets out measurements from US11534434B2 (Karuna Therapeutics, Inc., priority 2019, dated 2022).

Assay [1] has as its target T1, human M4 mAChR (Homo sapiens, UniProt P08173).
T1 construct: expressed in transfected cells
T1 sequence (P08173 1-479): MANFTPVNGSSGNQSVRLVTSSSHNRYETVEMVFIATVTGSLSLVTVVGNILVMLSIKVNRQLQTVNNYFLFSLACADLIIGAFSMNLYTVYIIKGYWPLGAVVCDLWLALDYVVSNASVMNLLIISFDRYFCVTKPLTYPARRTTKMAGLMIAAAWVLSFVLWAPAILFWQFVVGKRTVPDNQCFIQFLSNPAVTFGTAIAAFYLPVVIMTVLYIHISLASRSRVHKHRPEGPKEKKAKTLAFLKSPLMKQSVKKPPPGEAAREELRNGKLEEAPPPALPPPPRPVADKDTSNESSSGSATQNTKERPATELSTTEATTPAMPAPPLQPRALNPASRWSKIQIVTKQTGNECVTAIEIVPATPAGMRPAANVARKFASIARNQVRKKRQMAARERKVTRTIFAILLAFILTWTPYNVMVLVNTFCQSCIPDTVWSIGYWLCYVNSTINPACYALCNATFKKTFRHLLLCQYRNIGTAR
Briefly: Whole-cell functional agonist activity, phospho-ERK (pERK), CHOK1-based human M4 mAChR stable cell line. The note with it: for EC50: agonist, CHOK1 human M4 cells; for M4 Top (%): top of curve, % of min (DMSO) and max (10 mM Acetylcholine) responses. The method, then:
(§1) Whole-cell functional agonist activity in cells expressing recombinant human muscarinic receptor subtypes.
(§2) ThermoFisher's FLIPR™ (Fluorescence Imaging Plate Reader) was used to quantify Ca^2+ release, a functional effect associated with Gaq-coupled M1 and M5 mAChRs. CisBio's phospho-ERK (pERK) Thr202/Tyr204 was used to evaluate Gai/o-coupled M2 and M4 mAChRs responses.
(§3) Percentage activity was calculated using the following formula: % Activity=100%×(mean RFU of test sample mean RFU of vehicle control)/(mean MAX RFU control ligand mean RFU of vehicle control) where RFU is relative fluorescence unit. The M2 and the M4 cells were thawed out one day before the assay and plated at 2,000 and 1,000 cells per well, respectively, in […] of DMEM/F12+10% FBS in ProxiPlate 384-well white-walled, white-bottom tissue culture-treated plates and incubated at 37° C. and 5% CO2 overnight. Before the assay, cells were serum-starved at 37° C. in 5% CO2 for 4 hours by replacing culture media with […] of F12 media with 8 mM HEPES. The pERK assay was run according to assay kit instructions with minor volume modifications outlined below.
(§4) Compound addition was carried out by adding 3× compound solution in […] of media with 0.3% DMSO (made from a 10 mM compound stock solution in 100% DMSO) for 5 minutes before the reaction was terminated by adding […] lysis and blocking solution. Cells were left in the lysis solution for 30 minutes before […] of antibody (Eu and d2) solution was added for an additional 2-hour incubation while protected from light. The plates were then read on laser Pherastar using the TR-FRET protocol.

Assay [2] concerns the target T2, human M5 mAChR (Homo sapiens, UniProt P08912).
T2 construct: expressed in transfected cells
T2 sequence (P08912 1-532): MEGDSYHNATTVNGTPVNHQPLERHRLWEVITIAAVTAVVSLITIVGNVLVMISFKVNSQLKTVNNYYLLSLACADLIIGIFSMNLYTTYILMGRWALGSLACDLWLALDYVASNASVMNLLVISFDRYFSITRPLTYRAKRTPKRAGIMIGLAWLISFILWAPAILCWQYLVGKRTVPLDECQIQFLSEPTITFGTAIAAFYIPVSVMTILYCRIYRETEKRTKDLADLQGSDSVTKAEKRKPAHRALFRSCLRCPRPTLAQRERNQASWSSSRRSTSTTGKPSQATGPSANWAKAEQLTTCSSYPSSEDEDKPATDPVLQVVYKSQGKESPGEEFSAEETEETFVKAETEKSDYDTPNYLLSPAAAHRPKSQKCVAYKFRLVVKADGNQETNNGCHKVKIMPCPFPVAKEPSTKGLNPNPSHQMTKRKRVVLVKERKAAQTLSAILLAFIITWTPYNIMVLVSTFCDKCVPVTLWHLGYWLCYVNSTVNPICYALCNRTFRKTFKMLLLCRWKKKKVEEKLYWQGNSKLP
Briefly: Whole-cell functional agonist activity, FLIPR Ca2+ release, CHOK1-based human M5 mAChR stable cell line. Particulars: for EC50: agonist, FLIPR Ca2+ release, CHOK1 human M5 cells; for Emax: top of curve, % activity vs MAX control ligand, FLIPR Ca2+.
From the text: as §1, §2
One day before the assay, M1, M3, and M5 cells were thawed out and plated at 10,000 cells/well into black-walled, clear-bottom, Poly-D-lysine coated 384-well microplates and incubated at 37° C. and 5% CO2 in MEME+10% FBS+1× penicillin/streptomycin/glutamine, for the M1 and M3 cell lines and F-12+10% FBS+1× penicillin/streptomycin/glutamine for the M5 cell line. […] The M1 and M5 responses were analyzed using the CBIS data analysis suite (ChemInnovation, CA).
as §3

The target of assay [3] is T3, human M2 mAChR (Homo sapiens, UniProt P08172).
T3 construct: expressed in transfected cells
T3 sequence (P08172 1-466): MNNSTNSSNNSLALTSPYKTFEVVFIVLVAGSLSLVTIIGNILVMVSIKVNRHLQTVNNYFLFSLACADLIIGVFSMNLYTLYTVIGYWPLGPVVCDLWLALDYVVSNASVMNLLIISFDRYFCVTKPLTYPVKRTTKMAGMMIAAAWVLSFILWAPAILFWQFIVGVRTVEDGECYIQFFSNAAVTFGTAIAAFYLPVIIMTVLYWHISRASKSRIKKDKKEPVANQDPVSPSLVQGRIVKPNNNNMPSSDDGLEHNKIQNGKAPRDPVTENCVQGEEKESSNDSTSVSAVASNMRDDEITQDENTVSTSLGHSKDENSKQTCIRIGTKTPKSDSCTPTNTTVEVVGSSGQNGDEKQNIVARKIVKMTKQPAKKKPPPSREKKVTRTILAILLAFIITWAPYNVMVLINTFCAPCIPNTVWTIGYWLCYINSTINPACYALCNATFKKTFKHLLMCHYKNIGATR
Kind of assay: Whole-cell functional agonist activity, phospho-ERK (pERK), CHOK1-based human M2 mAChR stable cell line. Particulars: for EC50: agonist, CHOK1 human M2 cells; for M2 Top (%): top of curve, % of min (DMSO) and max (10 mM Acetylcholine) responses. The procedure: as §1, §2, §3, §4

With `CN1CCC=C(c2nsnc2OCCCCCC(F)(F)F)C1` [Example 1, 3-(1-Methyl-1,2,5,6-tetrahydropyridin-3-yl)-4-((6,6,6-trifluorohexyl)oxy)-1,2,5-thiadiazole], in assay [1], a half-maximal effect (EC50) was put at 15.7 nM and the “M4 Top (%)” value is listed as 82%. In assay [2], the EC50 (commonly the concentration at which the effect is half-maximal) stood at 22.4 nM and the Emax (as a rule, the greatest response seen or fitted, relative to the assay's reference) is 85%. In assay [3], the EC50 is above 34 nM and the “M2 Top (%)” value was 1%.
In the case of `CN1CCC=C(c2nsnc2OCCCCCC(F)F)C1` [Example 6, 3-((6,6-difluorohexyl)oxy)-4-(1-methyl-1,2,5,6-tetrahydropyridin-3-yl)-1,2,5-thiadiazole], in assay [1], a half-maximal effect (EC50) was put at 11 nM and the “M4 Top (%)” value was determined as 108%. In assay [2], this molecule gave an EC50 of 14.7 nM and an Emax of 95%. Also, in assay [3], the EC50 is above 34 nM and the “M2 Top (%)” value was determined as 2%.
Regarding `CN1CCC=C(c2nsnc2OCCCCCCF)C1` [Example 7, 3-((6-Fluorohexyl)oxy)-4-(1-methyl-1,2,5,6-tetrahydropyridin-3-yl)-1,2,5-thiadiazole], in assay [1], the EC50 came out at 8.3 nM and the “M4 Top (%)” value amounted to 112%. Besides, in assay [2], the EC50 was determined as 13.2 nM and the Emax was determined as 90%. In assay [3], the EC50 is above 34 nM and the “M2 Top (%)” value was found to be 3%.
With `CN1CCC=C(c2nsnc2OCCCCC(C)(F)F)C1` [Example 8, 3-((5,5-Difluorohexyl)oxy)-4-(1-methyl-1,2,5,6-tetrahydropyridin-3-yl)-1,2,5-thiadiazole], in assay [1], the midpoint of the response, the EC50, lay at 12.6 nM and the “M4 Top (%)” value came out at 48%. In assay [2], this molecule registered an EC50 of 27.2 nM and an Emax of 85%. In assay [3], the 50% effective concentration (EC50) is above 34 nM and the “M2 Top (%)” value is 0%.
Consider `CCC(F)(F)CCCOc1nsnc1C1=CCCN(C)C1` [Example 9, 3-((4,4-Difluorohexyl)oxy)-4-(1-methyl-1,2,5,6-tetrahydropyridin-3-yl)-1,2,5-thiadiazole], for which, in assay [1], the EC50 is above 34 nM and the “M4 Top (%)” value is 5%. For the same molecule, in assay [2], the EC50 was determined as 140 nM and the Emax amounted to 40%. For the same molecule, in assay [3], the EC50 was above 34 nM and the “M2 Top (%)” value is 1%.
Take `CCCCC(F)(F)COc1nsnc1C1=CCCN(C)C1` [Example 11, 3-((2,2-Difluorohexyl)oxy)-4-(1-methyl-1,2,5,6-tetrahydropyridin-3-yl)-1,2,5-thiadiazole]: in assay [1], the EC50 came to 374 nM and the “M4 Top (%)” value is reported as 62%. Moreover, in assay [2], the EC50 stood at 2290 nM and the Emax is 45%. Also, in assay [3], the EC50 was above 34 nM and the “M2 Top (%)” value came out at 0%.
